# Results taken from ChEMBL document CHEMBL1201862, “PubChem BioAssay data set” (2004).
#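 48-hour exposure; five concentrations; linearly interpolated endpoints. GI50 = concentration required for 50% inhibition of growth.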 Active and inactive are the calls of the source. Rule as the data show it: active = GI50 up to about 1.1 µM and inactive = higher.
# Key:
# Assay in all cases: DTP human tumour cell line panel, 48 h
# T47D = test system: T47D
# RPMI-8226 = test system: RPMI-8226
# UACC-257 = test system: UACC-257
# CCRF-CEM = test system: CCRF-CEM
# 786-0 = test system: 786-0
# OVCAR-3 = test system: OVCAR-3
# SF-539 = test system: SF-539
# OVCAR-5 = test system: OVCAR-5
# OVCAR-8 = test system: OVCAR-8
# IGROV-1 = test system: IGROV-1
# SNB-75 = test system: SNB-75
# UACC-62 = test system: UACC-62
# PC-3 = test system: PC-3
# SF-295 = test system: SF-295
# MDA-MB-435 = test system: MDA-MB-435
# KM12 = test system: KM12
# SK-MEL-28 = test system: SK-MEL-28
# MDA-MB-231 = test system: MDA-MB-231
# HL-60 = test system: HL-60
# K562 = test system: K562
Compound,GI50 (T47D),GI50 (RPMI-8226),GI50 (UACC-257),GI50 (CCRF-CEM),GI50 (786-0),GI50 (OVCAR-3),GI50 (SF-539),GI50 (OVCAR-5),GI50 (OVCAR-8),GI50 (IGROV-1),GI50 (SNB-75),GI50 (UACC-62),GI50 (PC-3),GI50 (SF-295),GI50 (MDA-MB-435),GI50 (KM12),GI50 (SK-MEL-28),GI50 (MDA-MB-231),GI50 (HL-60),GI50 (K562)
C=CCOc1cc(NC(=S)c2ccoc2C)ccc1OC,> 100 µM (inactive),> 100 µM (inactive),> 100 µM (inactive),> 100 µM (inactive),> 100 µM (inactive),> 100 µM (inactive),> 100 µM (inactive),> 100 µM (inactive),> 100 µM (inactive),> 100 µM (inactive),24.1 µM (inactive),> 100 µM (inactive),> 100 µM (inactive),> 100 µM (inactive),> 100 µM (inactive),> 100 µM (inactive),> 100 µM (inactive),> 100 µM (inactive),> 100 µM (inactive),> 100 µM (inactive)
COCc1nc2c(OC)c(-c3nc4ccc(N5CCN(C)CC5)cc4[nH]3)cc(OC)c2[nH]1,65.2 µM (inactive),32.1 µM (inactive),17.7 µM (inactive),27.5 µM (inactive),40.1 µM (inactive),29.7 µM (inactive),20 µM (inactive),> 100 µM (inactive),60.7 µM (inactive),97.9 µM (inactive),4.3 µM (inactive),80.7 µM (inactive),42.9 µM (inactive),21.6 µM (inactive),33 µM (inactive),28.1 µM (inactive),> 100 µM (inactive),30.2 µM (inactive),33.6 µM (inactive),38.8 µM (inactive)
COC(=O)c1ccccc1C1=C([N+](=O)[O-])C(c2cccc(Br)c2)C(C#N)=C(N)O1 (stereo not given),28.3 µM (inactive),23.7 µM (inactive),36.1 µM (inactive),20.8 µM (inactive),25.6 µM (inactive),20.7 µM (inactive),61 µM (inactive),> 100 µM (inactive),21 µM (inactive),27.8 µM (inactive),25.4 µM (inactive),21 µM (inactive),40.6 µM (inactive),> 100 µM (inactive),22.7 µM (inactive),> 10 µM (inactive),52.6 µM (inactive),73.8 µM (inactive),29 µM (inactive),19.9 µM (inactive)
CN(C)c1ccc(-c2ccc(N(C)C)c3n[se]nc23)c2n[se]nc12,> 100 µM (inactive),> 100 µM (inactive),> 100 µM (inactive),> 100 µM (inactive),> 100 µM (inactive),> 100 µM (inactive),> 100 µM (inactive),> 100 µM (inactive),> 100 µM (inactive),> 100 µM (inactive),> 100 µM (inactive),> 100 µM (inactive),> 100 µM (inactive),> 100 µM (inactive),> 100 µM (inactive),> 100 µM (inactive),> 100 µM (inactive),> 100 µM (inactive),> 100 µM (inactive),> 100 µM (inactive)
CN(C)CCCNc1c2c(=O)n(C)c(=O)nc-2n(C)c2ccccc12,5.12 µM (inactive),7.1 µM (inactive),4.86 µM (inactive),3.4 µM (inactive),5.68 µM (inactive),1.25 µM (inactive),6.73 µM (inactive),6.1 µM (inactive),4.83 µM (inactive),15.6 µM (inactive),5.15 µM (inactive),5.22 µM (inactive),4.08 µM (inactive),6.43 µM (inactive),3.94 µM (inactive),3.58 µM (inactive),10.4 µM (inactive),6 µM (inactive),0.966 µM (active),4.8 µM (inactive)
O=C1C=Cc2c(Br)sc(Br)c21,34 µM (inactive),10.3 µM (inactive),26.6 µM (inactive),2.64 µM (inactive),34.9 µM (inactive),15.8 µM (inactive),59.3 µM (inactive),35.6 µM (inactive),26.5 µM (inactive),18.6 µM (inactive),90.4 µM (inactive),23.7 µM (inactive),19.7 µM (inactive),> 100 µM (inactive),19.1 µM (inactive),37.4 µM (inactive),28.8 µM (inactive),21.7 µM (inactive),23.1 µM (inactive),23 µM (inactive)
CC(=O)NCCC1CN(C(=O)/C=C/I)c2ccccc21 (stereo not given),2.04 µM (inactive),0.292 µM (active),7.48 µM (inactive),2.95 µM (inactive),1.32 µM (inactive),5.86 µM (inactive),8 µM (inactive),15.8 µM (inactive),9.79 µM (inactive),6.55 µM (inactive),16.8 µM (inactive),5.07 µM (inactive),8.81 µM (inactive),15.5 µM (inactive),5.93 µM (inactive),1.24 µM (inactive),6.04 µM (inactive),2.91 µM (inactive),3.17 µM (inactive),3.73 µM (inactive)
CC1=C(CO)C(=O)O[C@@H]([C@@H](C)[C@H]2CC[C@H]3[C@@H]4C[C@@H](O)[C@@]5(O)CC=CC(=O)[C@]5(C)[C@H]4CC[C@]23C)C1 [JABOROSALACTONE D],58.1 µM (inactive),24.9 µM (inactive),> 100 µM (inactive),33.2 µM (inactive),20.8 µM (inactive),36 µM (inactive),31 µM (inactive),> 100 µM (inactive),31.3 µM (inactive),15.1 µM (inactive),25.9 µM (inactive),29.6 µM (inactive),47 µM (inactive),61.5 µM (inactive),44.3 µM (inactive),19.8 µM (inactive),42.1 µM (inactive),31.3 µM (inactive),21.1 µM (inactive),26.8 µM (inactive)
